The test system of one data set is rat hair loss model. Put plainly: Rat hair loss (androgenic alopecia) model: hair length. Format: in vivo, Wistar rats. The following applies: for 15-day hair length / 30-day hair length / 45-day hair length / 60-day hair length: rat AGA model; for adverse reactions: rat hair loss model, external use and system application, 60 days. From the text:
(1) Compound CLY-1, CLY-2, CLY-3, CLY-4, CLY-5, CLY-8, CLY-11, CLY-19, CLY-36, CLY-39 tincture preparation method: 75% ethanol was mixed with appropriate amount of above compounds to prepare a tincture of different concentrations.
(2) Positive treatment drug: 5% minoxidil tincture (trade name: Mandi, Zhejiang Wanma Pharmaceutical Co., Ltd.).
Wistar rats were, according to weights, randomly divided into the negative control group (75% ethanol for external use), model group (75% ethanol for external use), positive control group (external 5% minoxidil tincture), CLY-1 external treatment group (external 5% CLY-1 tincture), CLY-2 external treatment group (external 5% CLY-2 tincture), CLY-3 external treatment group (external 5% CLY-3 tincture), CLY-4 external treatment group (external 5% CLY-4 tincture), and CLY-5 external treatment group (external 5% CLY-5 tincture) according to their body weight CLY-8 external treatment group (external 5% CLY-8 tincture), CLY-11 external treatment group (external 5% CLY-11 tincture), CLY-19 external treatment group (external 5% CLY-19 tincture), CLY-36 external treatment group (external 5% CLY-36 tincture), CLY-39 external treatment group (external 5% CLY-39 tincture), CLY-1 intravenous injection group (2 mg/kg·d), CLY-3 intravenous injection group (2 mg/kg·d), CLY-4 intravenous injection group (2 mg/kg·d) CLY-5 intravenous injection group (2 mg/kg·d), CLY-8 intravenous injection group (2 mg/kg·d), CLY-11 intravenous injection group (2 mg/kg·d), CLY-19 intravenous injection group (2 mg/kg·d), CLY-36 intravenous injection group (2 mg/kg·d), and CLY-39 intravenous injection group (2 mg/kg·d), with 10 rats in each group. Before the experiment, an area of 4 cm×5 cm was selected on each rat on the back of the neck to remove hair as the observation area. In addition to the negative control group, rats were subcutaneously injected with testosterone propionate injection [5 ml/(kg·d)] once a day for 60 days to establish the androgenic alopecia (AGA) model. […] At the same time, the drug was applied to the observation area on the back of the rats in the corresponding drug group at the rate of 2 mL/(one time), twice a day, at an interval of 8 hours; Intravenous administration once a day. The negative control group and the model control group were smeared with 75% ethanol solution, 2 mL/(one rat per time), twice a day, for 60 days.
Took 10 hairs from the observation area on the back of each rat every 15 days after administration, and measured the hair length with a vernier caliper. After 60 days of administration, the skin of the experimental observation area was taken for routine tissue dehydration, paraffin embedding, HE staining, and light microscopy to observe the histopathological changes of the rat skin hair follicles and sebaceous glands. Semi-quantitative analysis was performed for each group. The grading criteria are as follows: the normal structure of dermal tissue cells, subcutaneous hair follicles, and sebaceous glands is marked as […]: no hyperplasia of dermal tissue is found, the lesions of hair follicles and sebaceous glands are limited, and no inflammation is found under the skin is marked as “+”: no obvious hyperplasia of dermal tissue is found, and the follicles are obviously cystic. No obvious hyperplasia of sebaceous glands is found, and no inflammation is found under the skin is marked as “+”: the dermal tissue has segmental hyperplasia, which is not obvious, A small number of hair follicles have cystic changes, and the sebaceous glands have mild hyperplasia and hypertrophy. There is no obvious inflammation under the skin, which is marked as “++”: the dermal tissue cells of the skin have different degrees of segmental hyperplasia, and some hair follicles have cystic changes, showing uneven size of hair follicles, and no cells around. The sebaceous glands have hyperplasia, and the nuclei in the proliferative glands are few. […]

Data set [1] relates to chloasma model of guinea pig. Put plainly: Chloasma model of guinea pig: tyrosine, MDA content and SOD activity of skin tissue. To be noted: 0.25% cream on the skin once a day, 30 days. Format: in vivo. An excerpt: 1.1.4 Preparation method of treatment cream: The excipient matrix components include methyl silicone oil (15%), stearic acid (6%), white vaseline (5%), liquid paraffin (5%), octadecanol (5%), glycerin (20%), alkyl aryl polyglycol ether (1%), fatty alcohol polyoxyethylene ether (1%), […] (1%), ethyl paraben (0.1%), distilled water (about 31-55%), and are mixed with appropriate amount of CLY series compounds to form 0.25% mixed emulsion. The cream matrix used in this embodiment refers to the matrix components after the active ingredients are removed from the cream.
According to the body weight, they were randomly divided into the model control group (applied cream matrix), blank control group (applied cream matrix), CLY-1 treatment group (applied 0.25% CLY-1 cream on the skin), CLY-2 treatment group (0.25% CLY-2 cream on the skin), CLY-3 treatment group (0.25% CLY-3 cream on the skin), CLY-4 treatment group (0.25% CLY-4 cream on the skin), CLY-5 treatment group (0.25% CLY-5 cream on the skin) CLY-8 treatment group (0.25% CLY-8 cream on the skin), CLY-11 treatment group (0.25% CLY-11 cream on the skin), CLY-19 treatment group (0.25% CLY-19 cream on the skin), CLY-36 treatment group (0.25% CLY-36 cream on the skin), CLY-39 treatment group (0.25% CLY-39 cream on the skin), positive treatment group (0.25% arbutin cream on the skin), 6 in each group. In addition to the blank control group, all guinea pigs in the other groups were injected with 20 mg/ml progesterone injection (7.5 mg/kg) into the muscle at the root of the hind leg, once a day, for 30 consecutive days to establish the chloasma model. […] After modeling, the guinea pigs in the model control group, blank control group, each CLY series treatment group, and positive treatment group were treated with corresponding cream on the back for intervention, once a day, for 30 consecutive days.
Took one piece of skin tissue from each guinea pig, separately. Washed it with precooled normal saline, removed subcutaneous fat and other connective tissue, and then wiped it dry. Each piece of skin tissue was cut to 0.5 g. Then put it into five small tubes containing 2.0 ml of precooled normal saline. The high-speed dispersion machine homogenizes at a speed of […], lasted for 10 seconds, repeated once, centrifuged at a speed of 3500 r/m for 15 minutes, and took the supernatant. Tyrosine was determined by HPLC, MDA was determined by the thiobarbituric acid method, SOD was determined by the xanthine oxidase method, and tyrosine, MDA content, and SOD activity were determined according to the instructions of the kit.
SPSS16.0 software was used for statistics. The measurement data were expressed by mean±standard deviation (x±s). The comparison between multiple groups was performed by one-way ANOVA, and the comparison between groups was performed by t-test. P<0.05 was statistically significant.

Setting [2] is: external 5% tincture twice a day.
[3] abbreviates: intravenous injection 2 mg/kg·d.

Marks after values point to notes of the source that are not given here.

As to `NC1CCCC(N(C(=O)c2ccc(-n3nnc4cccnc43)cc2)c2ncccc2Cl)C1` (stereo not drawn) [CLY-11], in the data set on rat hair loss model (setting [2]), the 15-day hair length was 8.2* mm, the 30-day hair length is given as 9.1* mm, the 45-day hair length is listed as 13.89* mm and the 60-day hair length was 17.4* mm. Also, in the data set on rat hair loss model (setting [3]), the 15-day hair length is 8.6* mm, the 30-day hair length is 9.3* mm, the 45-day hair length was 14.7* mm and the 60-day hair length is recorded as 17.6* mm. Further, in the data set with rat hair loss model, the adverse reactions result is listed as “no obvious adverse reactions”. In addition, in data set [1], the MDA came out at 11.62 ± 1.21 nmol/mL, the SOD is reported as 95.13 ± 9.16 NU/ml and the tyrosine turned out to be 0.54 ± 0.06 µg.
With `O=C(c1ccc(-c2ccccc2-c2nnn[nH]2)cc1)N(c1ncccc1Cl)[C@@H]1CCCNC1` [CLY-19], in the data set with rat hair loss model (setting [2]), the 15-day hair length is reported as 8.5* mm, the 30-day hair length was 9.4* mm, the 45-day hair length is given as 14.02* mm and the 60-day hair length is listed as 17.6* mm. For the same molecule, in the data set on rat hair loss model (setting [3]), the 15-day hair length is 8.8* mm, the 30-day hair length is 9.7* mm, the 45-day hair length is 14.9* mm and the 60-day hair length is 17.8* mm. The adverse reactions result in the data set on rat hair loss model is recorded as “no obvious adverse reactions”. In addition, in data set [1], the MDA came out at 11.75 ± 1.26 nmol/mL, the SOD is 96.53 ± 9.21 NU/ml and the tyrosine was 0.56 ± 0.07 µg.
Turning to `O=C(c1ccc(-c2ccccc2Cl)cc1)N(c1ncccc1Cl)[C@@H]1CCCNC1` [CLY-36], in the data set with rat hair loss model (setting [2]), the 15-day hair length was 8.1* mm, the 30-day hair length was 8.7* mm, the 45-day hair length is recorded as 13.81* mm and the 60-day hair length was 17.1* mm. Besides, in the data set with rat hair loss model (setting [3]), the 15-day hair length is reported as 8.6* mm, the 30-day hair length is 9.2* mm, the 45-day hair length was 14.2* mm and the 60-day hair length is 17.3* mm. Moreover, in the data set with rat hair loss model, the adverse reactions entry was “no obvious adverse reactions”. In data set [1], this molecule returned an MDA of 11.83 ± 1.27 nmol/mL, an SOD of 93.42 ± 9.03 NU/ml and a tyrosine of 0.58 ± 0.08 µg.
As to `Nc1ccccc1-c1ccc(C(=O)N(c2ncccc2Cl)[C@@H]2CCCNC2)cc1` [CLY-39], in the data set with rat hair loss model (setting [2]), the 15-day hair length was 9.1* mm, the 30-day hair length is 9.3* mm, the 45-day hair length is given as 14.8* mm and the 60-day hair length is listed as 18.2* mm. Also, in the data set on rat hair loss model (setting [3]), the 15-day hair length is 9.3* mm, the 30-day hair length was 9.9* mm, the 45-day hair length is recorded as 14.9* mm and the 60-day hair length is on record as 18.1* mm. Further, in the data set with rat hair loss model, the adverse reactions entry is “no obvious adverse reactions”. Besides, in data set [1], the MDA was 10.81 ± 1.23 nmol/mL, the SOD is given as 103.16 ± 9.65 NU/ml and the tyrosine was 0.46 ± 0.05 µg.

(Values after patent US20240300945A1, “CLY SERIES COMPOUND, PREPARATION METHOD THEREFOR AND USE THEREOF IN PREPARATION OF DRUGS” (NANJING WELLBEST PHARMACEUTICAL CO., LTD, priority 2021, published 2024).)
